For assay [1], the target named is Growth hormone secretagogue receptor type 1 (Homo sapiens, UniProt Q92847).
Assay [2] addresses T1, Muscarinic acetylcholine receptor M2 (Homo sapiens, UniProt P08172).
T1 sequence (P08172 whole entry): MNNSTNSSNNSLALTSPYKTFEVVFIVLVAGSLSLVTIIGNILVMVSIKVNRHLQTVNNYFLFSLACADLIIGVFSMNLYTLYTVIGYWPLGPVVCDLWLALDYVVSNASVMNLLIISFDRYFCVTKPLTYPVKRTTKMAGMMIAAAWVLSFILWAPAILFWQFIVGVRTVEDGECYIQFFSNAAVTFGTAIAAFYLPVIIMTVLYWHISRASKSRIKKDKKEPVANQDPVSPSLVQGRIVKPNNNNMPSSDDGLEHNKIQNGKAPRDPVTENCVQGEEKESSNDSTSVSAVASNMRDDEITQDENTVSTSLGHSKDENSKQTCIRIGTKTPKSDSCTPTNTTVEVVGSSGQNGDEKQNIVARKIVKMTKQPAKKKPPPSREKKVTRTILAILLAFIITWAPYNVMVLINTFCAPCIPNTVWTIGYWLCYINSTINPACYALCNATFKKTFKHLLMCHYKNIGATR
In kind it is functional, cell-based.

The target in assay [3] is T2, Glucocorticoid receptor (Homo sapiens, UniProt P04150).
T2 sequence (P04150 whole entry): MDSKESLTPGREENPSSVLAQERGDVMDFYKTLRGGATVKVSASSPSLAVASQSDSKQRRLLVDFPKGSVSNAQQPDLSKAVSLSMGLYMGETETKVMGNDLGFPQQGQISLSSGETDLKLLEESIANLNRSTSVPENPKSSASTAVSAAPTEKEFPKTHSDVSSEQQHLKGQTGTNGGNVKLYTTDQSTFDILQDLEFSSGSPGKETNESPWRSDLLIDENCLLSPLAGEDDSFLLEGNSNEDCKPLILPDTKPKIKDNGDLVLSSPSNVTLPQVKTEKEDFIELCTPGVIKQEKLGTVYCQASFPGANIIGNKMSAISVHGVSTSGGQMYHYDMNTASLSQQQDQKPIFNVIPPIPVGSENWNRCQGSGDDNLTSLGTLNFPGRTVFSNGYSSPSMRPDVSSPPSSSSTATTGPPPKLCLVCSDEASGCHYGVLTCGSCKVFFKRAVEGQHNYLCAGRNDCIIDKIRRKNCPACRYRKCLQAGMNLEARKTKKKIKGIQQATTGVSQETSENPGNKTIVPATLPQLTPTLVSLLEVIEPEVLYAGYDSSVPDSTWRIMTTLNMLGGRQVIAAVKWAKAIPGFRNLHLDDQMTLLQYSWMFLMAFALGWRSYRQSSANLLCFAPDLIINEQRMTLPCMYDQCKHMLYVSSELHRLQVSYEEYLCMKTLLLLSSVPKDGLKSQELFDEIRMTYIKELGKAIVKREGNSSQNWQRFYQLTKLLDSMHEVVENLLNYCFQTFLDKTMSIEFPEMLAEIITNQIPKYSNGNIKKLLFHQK

The target in assay [4] is Mu-type opioid receptor (Homo sapiens, UniProt P35372). Kind of assay: biochemical. It is filed as functional.
In assay [5] the target is Adenosine receptor A2a (Homo sapiens, UniProt P29274).
For assay [6], the target named is T3, Alpha-1A adrenergic receptor (Homo sapiens, UniProt P35348).
T3 sequence (P35348 whole entry): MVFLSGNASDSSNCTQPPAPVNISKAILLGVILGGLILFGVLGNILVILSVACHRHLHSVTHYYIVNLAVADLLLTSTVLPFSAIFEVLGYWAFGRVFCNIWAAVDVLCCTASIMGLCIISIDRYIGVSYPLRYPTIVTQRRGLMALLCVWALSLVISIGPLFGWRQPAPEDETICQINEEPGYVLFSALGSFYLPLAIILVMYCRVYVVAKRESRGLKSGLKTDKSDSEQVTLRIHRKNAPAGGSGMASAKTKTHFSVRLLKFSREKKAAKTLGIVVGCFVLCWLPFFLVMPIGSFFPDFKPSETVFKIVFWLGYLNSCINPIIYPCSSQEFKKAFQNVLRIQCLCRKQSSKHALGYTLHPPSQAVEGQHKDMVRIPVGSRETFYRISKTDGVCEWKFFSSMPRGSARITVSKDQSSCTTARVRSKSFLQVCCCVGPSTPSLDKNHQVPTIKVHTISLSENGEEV
In kind it is functional, cell-based.

The target in assay [7] is Cannabinoid receptor 1 (Homo sapiens, UniProt P21554). It is filed as functional, cell-based.
Assay [8] concerns the target Glutamate receptor ionotropic, NMDA 1 (Rattus norvegicus, UniProt P35439).
For assay [9], the target named is T4, Prostaglandin G/H synthase 1 (Rattus norvegicus, UniProt Q63921).
T4 sequence (Q63921 whole entry): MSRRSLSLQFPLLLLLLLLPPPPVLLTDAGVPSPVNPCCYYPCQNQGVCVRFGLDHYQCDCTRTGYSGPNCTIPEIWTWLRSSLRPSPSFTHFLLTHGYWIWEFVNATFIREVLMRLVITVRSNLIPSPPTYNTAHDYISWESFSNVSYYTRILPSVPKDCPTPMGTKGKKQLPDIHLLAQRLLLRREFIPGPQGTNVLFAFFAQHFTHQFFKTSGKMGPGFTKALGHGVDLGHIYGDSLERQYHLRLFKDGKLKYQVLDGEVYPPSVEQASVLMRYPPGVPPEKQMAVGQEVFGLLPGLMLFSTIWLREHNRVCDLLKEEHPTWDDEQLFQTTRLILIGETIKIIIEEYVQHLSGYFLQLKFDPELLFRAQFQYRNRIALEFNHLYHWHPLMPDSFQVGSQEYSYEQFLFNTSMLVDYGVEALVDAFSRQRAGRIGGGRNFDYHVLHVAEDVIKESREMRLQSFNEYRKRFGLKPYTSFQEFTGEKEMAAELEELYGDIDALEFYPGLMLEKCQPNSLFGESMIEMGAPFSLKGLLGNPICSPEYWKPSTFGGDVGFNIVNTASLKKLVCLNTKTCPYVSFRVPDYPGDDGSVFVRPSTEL
It is filed as functional.

In assay [10] the target is Gamma-aminobutyric acid receptor subunit alpha-1 (Rattus norvegicus, UniProt P62813).

Among the data in ChEMBL document CHEMBL5291721, “A preclinical secondary pharmacology resource illuminates target-adverse drug reaction associations of marketed drugs” (Nat Commun, 2023) are AC50 values, retold here.

A value given as a limit tells only on which side of the number the result lay.
Also: assay procedure not described here.

Sequence of Adenosine receptor A2a (P29274 whole entry): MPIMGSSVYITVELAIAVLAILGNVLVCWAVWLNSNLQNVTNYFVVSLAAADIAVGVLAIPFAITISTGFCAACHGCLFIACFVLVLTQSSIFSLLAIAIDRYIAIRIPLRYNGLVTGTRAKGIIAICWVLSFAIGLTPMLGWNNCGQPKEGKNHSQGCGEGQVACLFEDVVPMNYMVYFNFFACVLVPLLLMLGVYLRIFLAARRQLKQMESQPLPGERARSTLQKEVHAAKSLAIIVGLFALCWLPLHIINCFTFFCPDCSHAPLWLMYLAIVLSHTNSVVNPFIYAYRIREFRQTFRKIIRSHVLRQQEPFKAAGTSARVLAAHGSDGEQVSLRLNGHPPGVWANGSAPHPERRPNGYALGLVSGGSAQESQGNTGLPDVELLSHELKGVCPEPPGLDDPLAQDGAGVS
Sequence of Gamma-aminobutyric acid receptor subunit alpha-1 (P62813 whole entry): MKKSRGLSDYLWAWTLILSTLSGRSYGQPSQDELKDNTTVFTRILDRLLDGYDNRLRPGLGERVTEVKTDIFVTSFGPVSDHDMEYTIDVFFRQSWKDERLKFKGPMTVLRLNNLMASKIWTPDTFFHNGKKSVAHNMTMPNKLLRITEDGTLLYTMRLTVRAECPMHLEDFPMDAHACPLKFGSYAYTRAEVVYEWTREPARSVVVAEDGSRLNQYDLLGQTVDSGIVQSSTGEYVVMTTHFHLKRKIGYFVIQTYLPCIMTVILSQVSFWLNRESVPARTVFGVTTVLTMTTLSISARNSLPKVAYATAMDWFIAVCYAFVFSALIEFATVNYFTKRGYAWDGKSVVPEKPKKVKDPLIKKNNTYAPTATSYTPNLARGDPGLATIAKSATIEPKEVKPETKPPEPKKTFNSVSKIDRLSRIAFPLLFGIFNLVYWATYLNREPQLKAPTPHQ
Sequence of Mu-type opioid receptor (P35372 whole entry): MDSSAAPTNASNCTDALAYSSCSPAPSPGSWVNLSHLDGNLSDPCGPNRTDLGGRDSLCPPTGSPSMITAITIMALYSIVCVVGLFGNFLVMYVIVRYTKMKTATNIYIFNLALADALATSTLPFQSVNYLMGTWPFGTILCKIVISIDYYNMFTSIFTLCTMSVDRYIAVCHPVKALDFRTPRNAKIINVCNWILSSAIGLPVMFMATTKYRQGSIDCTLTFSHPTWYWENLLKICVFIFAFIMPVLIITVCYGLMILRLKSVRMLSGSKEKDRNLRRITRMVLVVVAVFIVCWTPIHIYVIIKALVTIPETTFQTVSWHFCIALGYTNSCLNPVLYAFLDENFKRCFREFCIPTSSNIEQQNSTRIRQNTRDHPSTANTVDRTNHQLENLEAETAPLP
Sequence of Growth hormone secretagogue receptor type 1 (Q92847 whole entry): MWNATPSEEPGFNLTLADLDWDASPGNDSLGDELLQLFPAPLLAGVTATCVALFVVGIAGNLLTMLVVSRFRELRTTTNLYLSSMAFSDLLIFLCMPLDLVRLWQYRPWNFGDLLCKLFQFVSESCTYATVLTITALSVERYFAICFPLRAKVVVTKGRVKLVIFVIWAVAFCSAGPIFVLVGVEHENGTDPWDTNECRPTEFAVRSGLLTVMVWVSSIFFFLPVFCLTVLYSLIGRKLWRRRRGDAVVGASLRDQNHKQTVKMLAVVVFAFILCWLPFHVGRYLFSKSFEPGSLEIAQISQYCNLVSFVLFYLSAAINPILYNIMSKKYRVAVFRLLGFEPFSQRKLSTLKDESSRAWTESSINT
Sequence of Cannabinoid receptor 1 (P21554 whole entry): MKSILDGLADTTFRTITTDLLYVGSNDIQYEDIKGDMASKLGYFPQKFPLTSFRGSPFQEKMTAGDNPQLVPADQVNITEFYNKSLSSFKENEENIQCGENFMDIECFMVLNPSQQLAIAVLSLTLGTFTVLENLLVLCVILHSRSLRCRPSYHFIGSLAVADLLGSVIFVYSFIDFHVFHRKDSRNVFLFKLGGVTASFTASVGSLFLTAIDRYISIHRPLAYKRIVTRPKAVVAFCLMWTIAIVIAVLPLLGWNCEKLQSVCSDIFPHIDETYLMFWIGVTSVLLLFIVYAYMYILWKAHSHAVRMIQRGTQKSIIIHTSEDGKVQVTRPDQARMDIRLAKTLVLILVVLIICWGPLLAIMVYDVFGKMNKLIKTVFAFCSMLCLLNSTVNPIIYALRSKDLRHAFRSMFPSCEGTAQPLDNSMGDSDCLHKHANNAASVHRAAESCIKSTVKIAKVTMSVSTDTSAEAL

As a reminder, the AC50 is the concentration giving half of the maximal activity seen. Low readings indicate activity at low concentration, high ones activity only at high concentration. As for `Nc1nc2c(c(=O)[nH]1)N(C=O)C(CNc1ccc(C(=O)N[C@@H](CCC(=O)O)C(=O)O)cc1)CN2` (stereo not given in full) [LEUCOVORIN], the concentration at half-maximal activity (AC50) in [1], in assay [2], in assay [3], in assay [4], in [5] and in assay [6] was over 30 µM in each case. For the same molecule, the AC50 in assay [7], in assay [8], in assay [9] and in [10] was over 30 µM each time.

As to `CCCC[C@H](C)C[C@H](O)/C=C/[C@H]1[C@H](O)CC(=O)[C@@H]1CCCC/C=C/C(=O)O` [LIMAPROST], the concentration at half-maximal activity (AC50) in assay [1], in assay [2], in assay [3], in [4], in assay [5] and in [6] was over 30 µM in each case. For the same molecule, the AC50 in assay [7], in assay [8], in assay [9] and in [10] was over 30 µM in each case.

On to `Cc1ccc(NC(=O)C2(c3ccc4c(c3)OC(F)(F)O4)CC2)nc1-c1cccc(C(=O)O)c1` [LUMACAFTOR], for which the AC50 in [1], in assay [2], in assay [3], in [4], in assay [5] and in assay [6] was over 30 µM in each case. Moreover, the AC50 in assay [7], in assay [8], in assay [9] and in assay [10] was over 30 µM throughout.

With `CC(C)OC(=O)C(C(=O)OC(C)C)=C1SC=CS1` [MALOTILATE], the AC50 in [1], in assay [2], in [3], in [4], in [5] and in [6] was over 30 µM throughout. In addition, the concentration at half-maximal activity (AC50) in assay [7], in assay [8], in assay [9] and in assay [10] was over 30 µM throughout.

As for `CCn1cc(C(=O)O)c(=O)c2cc(F)c(N3CCN(C)CC3)cc21` [PEFLOXACIN], the concentration at half-maximal activity (AC50) in assay [1], in [2], in [3], in [4], in assay [5] and in [6] was over 30 µM in each case. In addition, the AC50 in assay [7], in [8], in assay [9] and in [10] was over 30 µM throughout.

As to `CC(=O)c1ccc2c(c1)N(CCCN1CCC(CCO)CC1)c1ccccc1S2` [PIPERACETAZINE], the AC50 was over 30 µM in assay [1]; 24 µM in [2]; over 30 µM in assay [3]; over 30 µM in [4]; over 30 µM in [5]; over 30 µM in assay [6]. Moreover, the AC50 in [7], in assay [8], in assay [9] and in [10] was over 30 µM throughout.

In the case of `CCCOC(C(=O)OC1CCN(C)CC1)(c1ccccc1)c1ccccc1` [PROPIVERINE], the AC50 is over 30 µM in assay [1]; 3.6 µM in assay [2]; over 30 µM in [3]; 3.6 µM in assay [4]; over 30 µM in assay [5]; over 30 µM in assay [6]. Also, the AC50 in assay [7], in assay [8], in assay [9] and in assay [10] was over 30 µM in each case.

`Cc1ccc2c(-c3ccccc3)nc(=O)n(C(C)C)c2c1` [PROQUAZONE]: the half-maximal activity concentration (AC50) in assay [1], in assay [2], in assay [3], in [4], in [5] and in [6] was over 30 µM throughout. Besides, the AC50 was over 30 µM in assay [7], over 30 µM in assay [8], 0.2 µM in [9] and over 30 µM in assay [10].

Take `CN1CCN(c2c(F)cc3c(=O)c(C(=O)O)cn4c3c2SCC4)CC1` [RUFLOXACIN]: the AC50 in assay [1], in assay [2], in assay [3], in [4], in [5] and in [6] was over 30 µM in each case. For the same molecule, the AC50 in [7], in assay [8], in assay [9] and in assay [10] was over 30 µM throughout.

On to `CC(C)CC(N(C)C)C1(c2ccc(Cl)cc2)CCC1` (stereo not given) [SIBUTRAMINE], for which the concentration at half-maximal activity (AC50) is over 30 µM in assay [1]; 19 µM in assay [2]; over 30 µM in assay [3]; over 30 µM in [4]; over 30 µM in assay [5]; over 30 µM in [6]. The AC50 in [7] was over 30 µM; in assay [8], over 10 µM; in assay [9] it was over 30 µM; in assay [10], over 10 µM.

With `[H]/N=C(/N)N[C@H]1[C@H](O)[C@@H](O)[C@H](O[C@@H]2O[C@@H](C)[C@](O)(C=O)[C@H]2O[C@@H]2O[C@@H](CO)[C@H](O)[C@@H](O)[C@@H]2NC)[C@@H](N/C(N)=N\[H])[C@@H]1O` [STREPTOMYCIN], the AC50 in assay [1], in assay [2], in assay [3], in [4], in assay [5] and in assay [6] was over 30 µM in each case. Moreover, the AC50 in assay [7], in assay [8], in assay [9] and in [10] was over 30 µM each time.

As to `CN1c2ccccc2C(NCCCCCCC(=O)O)c2ccc(Cl)cc2S1(=O)=O` (stereo not given) [TIANEPTINE], the AC50 was over 30 µM in [1]; over 30 µM in assay [2]; over 30 µM in [3]; 2.6 µM in [4]; over 30 µM in assay [5]; over 30 µM in [6]. Also, the half-maximal activity concentration (AC50) in [7], in [8], in assay [9] and in assay [10] was over 30 µM each time.
